This passage reports IC50 results from patent publication US10633342B2, “Inhibitors of indoleamine 2,3-dioxygenase and methods of their use” (BRISTOL-MYERS SQUIBB COMPANY, priority 2016, dated 2020).

T1 sequence (P14902 whole entry): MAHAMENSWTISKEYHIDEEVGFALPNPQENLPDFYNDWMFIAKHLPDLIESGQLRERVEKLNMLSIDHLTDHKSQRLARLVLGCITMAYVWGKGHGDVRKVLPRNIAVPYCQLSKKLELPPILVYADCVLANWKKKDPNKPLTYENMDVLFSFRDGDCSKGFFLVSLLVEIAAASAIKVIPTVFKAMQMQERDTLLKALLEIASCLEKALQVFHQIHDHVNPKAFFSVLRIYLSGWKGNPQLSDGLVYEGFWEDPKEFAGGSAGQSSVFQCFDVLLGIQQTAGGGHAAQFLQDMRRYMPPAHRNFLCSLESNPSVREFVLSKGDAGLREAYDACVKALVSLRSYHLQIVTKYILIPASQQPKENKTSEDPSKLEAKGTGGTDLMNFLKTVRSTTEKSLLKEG

This assay addresses T1, human IDO1 (Homo sapiens, UniProt P14902).
T1 construct: expressed in transfected cells
Description: HEK Human IDO-1 inhibition assay (kynurenine, Ehrlich reagent, absorbance 490 nm). The assay is classed as cell-based. The conditions noted are these: human IDO1/HEK293 cells, 20 hours incubation; read-out: HEK Human IDO-1 Bio Activity (IDO IC50). The protocol:
HEK293 cells were transfected with a pCDNA-based mammalian expression vector harboring human IDO1 cDNA (NM 002164.2) by electroporation. They were cultured in medium (DMEM with 10% FBS) containing 1 mg/ml G418 for two weeks. Clones of HEK293 cells that stably expressed human IDO1 protein were selected and expanded for IDO inhibition assay.
The human IDO1/HEK293 cells were seeded at 10,000 cells per 50 μL per well with RPMI/phenol red free media contains 10% FBS in a 384-well black wall clear bottom tissue culture plate (Matrix Technologies LLC) 100 nL of certain concentration of compound was then added to each well using ECHO liquid handling systems. The cells were incubated for 20 hours in 37° C. incubator with 5% CO2.
The compound treatments were stopped by adding trichloroacetic acid (Sigma-Aldrich) to a final concentration at 0.2%. The cell plate was further incubated at 50° C. for 30 minute. The equal volume supernatant (20 μL) and 0.2% (w/v) Ehrlich reagent (4-dimethylaminobenzaldehyde, Sigma-Aldrich) in glacial acetic acid were mixed in a new clear bottom 384-well plate. This plate was then incubated at room temperature for 30 minute. The absorbance at 490 nm was measured on Envision plate reader.
Compound IC50 values were calculated using the counts of 500 nM of a reference standard treatment as one hundred percent inhibition, and counts of no compound but DMSO treatment as zero percent inhibition.
For `C[C@@H](NC(=O)C1CC1)[C@H]1CC[C@@H](c2ccnc3ccc(F)cc32)CC1` [Example 16, N-((R)-1-((1s,4S)-4-(6-fluoroquinolin-4-yl)cyclohexyl)ethyl)-cyclopropanecarboxamide], the IC50 was under 1000 nM.

For `C[C@@H](NC(=O)C1CCCCC1)[C@H]1CC[C@@H](c2ccnc3ccc(F)cc32)CC1` [Example 15, N-((R)-1-((1s,4S)-4-(6-fluoroquinolin-4-yl)cyclohexyl)ethyl)-cyclohexanecarboxamide], the IC50 is under 100 nM.

In the case of `C[C@@H](NC(=O)[C@H]1C[C@H](F)C1)[C@H]1CC[C@@H](c2ccnc3ccc(F)cc32)CC1` [Example 18, (1r,3R)-3-fluoro-N-((R)-1-((1s,4S)-4-(6-fluoroquinolin-4-yl)cyclohexyl)ethyl)-cyclobutanecarboxamide], the concentration for half-maximal inhibition (IC50) is under 1000 nM.

As to `C[C@@H](NC(=O)Cc1ccccc1F)[C@H]1CC[C@@H](c2ccnc3ccc(F)cc32)CC1` [Example 12, 2-(2-fluorophenyl)-N-((R)-1-((1s,4S)-4-(6-fluoroquinolin-4-yl)cyclohexyl)ethyl)acetamide], the half-maximal inhibitory concentration (IC50) is under 1000 nM.

For the molecule `O=C(Cc1ccc(F)cc1)NCC1CCN(c2ccnc3ccc(F)cc23)CC1` [Example 2, 2-(4-Fluorophenyl)-N-((1-(6-fluoroquinolin-4-yl)piperidin-4-yl)methyl)acetamide], the 50% inhibitory concentration (IC50) was under 100 nM.

With `C[C@@H](NC(=O)C1CCC1)[C@H]1CC[C@@H](c2ccnc3ccc(F)cc32)CC1` [Example 20, N-((R)-1-((1s,4S)-4-(6-fluoroquinolin-4-yl)cyclohexyl)ethyl)-cyclobutanecarboxamide], the concentration for half-maximal inhibition (IC50) was under 1000 nM.

For `C[C@@H](NC(=O)[C@H]1C[C@@H](F)C1)[C@H]1CC[C@@H](c2ccnc3ccc(F)cc32)CC1` [Example 19, (1s,3S)-3-fluoro-N-((R)-1-((1s,4S)-4-(6-fluoroquinolin-4-yl)cyclohexyl)ethyl)-cyclobutanecarboxamide], the IC50 was under 1000 nM.

Consider `CO[C@@H](C(=O)N[C@H](C)[C@H]1CC[C@@H](c2ccnc3ccc(F)cc32)CC1)c1ccccc1` [Example 11], for which the IC50 was under 100 nM.

Take `C[C@@H](NC(=O)[C@H]1CC[C@@H](O)CC1)[C@H]1CC[C@@H](c2ccnc3ccc(F)cc32)CC1` [Example 21, (1s,4S)-N-((R)-1-((1s,4S)-4-(6-fluoroquinolin-4-yl)cyclohexyl)ethyl)-4-hydroxycxclohexanecarboxamide]: the half-inhibitory concentration (IC50) is under 1000 nM.

As for `COc1ccc(CC(=O)N[C@H](C)[C@H]2CC[C@@H](c3ccnc4ccc(F)cc43)CC2)cc1` [Example 10, N-((R)-1-((1s,4S)-4-(6-fluoroquinolin-4-yl)cyclohexyl)ethyl)-2-(4-methoxyphenyl)acetamide], the IC50 is under 1000 nM.

As to `O=C(Cc1ccccc1F)NCC1CCN(c2ccnc3ccc(F)cc23)CC1` [Example 3, 2-(2-Fluorophenyl)-N-((1-(6-fluoroquinolin-4-yl)piperidin-4-yl)methyl)acetamide], the IC50 is under 1000 nM.

For `C[C@@H](CNC(=O)c1ccc(Cl)cc1)[C@H]1CC[C@@H](c2ccnc3ccc(F)cc32)CC1` [Example 4, 4-chloro-N—((R)-2-((cis)-4-(6-fluoroquinolin-4-yl)cyclohexyl)propyl)benzamide], the 50% inhibitory concentration (IC50) was under 1000 nM.

As for `C[C@@H](NC(=O)C1(c2ccc(Cl)cc2)CCC1)[C@H]1CC[C@@H](c2ccnc3ccc(F)cc32)CC1` [Example 13, 1-(4-chlorophenyl)-N-((R)-1-((1s,4S)-4-(6-fluoroquinolin-4-yl)cyclohexyl)ethyl)-cyclobutanecarboxamide], the half-maximal inhibitory concentration (IC50) is under 100 nM.

In the case of `C[C@@H](NC(=O)C1CC(F)(F)C1)[C@H]1CC[C@@H](c2ccnc3ccc(F)cc32)CC1` [Example 17, 3,3-difluoro-N-((R)-1-((1s,4S)-4-(6-fluoroquinolin-4-yl)cyclohexyl)ethyl)-cyclobutanecarboxamide], the 50% inhibitory concentration (IC50) is under 1000 nM.

On to `C[C@@H](NC(=O)Cc1ccc(Cl)cc1)[C@H]1CC[C@@H](c2ccnc3ccc(F)cc32)CC1` [Example 5, 2-(4-chlorophenyl)-N-((R)-1-((1s,4S)-4-(6-fluoroquinolin-4-yl)cyclohexyl)ethyl)acetamide], for which the half-inhibitory concentration (IC50) is under 1000 nM.

As for `C[C@@H](NC(=O)Cc1ccccc1Cl)[C@H]1CC[C@@H](c2ccnc3ccc(F)cc32)CC1` [Example 6, 2-(2-chlorophenyl)-N-((R)-1-((1s,4S)-4-(6-fluoroquinolin-4-yl)cyclohexyl)ethyl)acetamide], the IC50 was under 1000 nM.

In the case of `C[C@@H](NC(=O)Cc1cccc(Cl)c1)[C@H]1CC[C@@H](c2ccnc3ccc(F)cc32)CC1` [Example 7, 2-(3-chlorophenyl)-N-((R)-1-((1s,4S)-4-(6-fluoroquinolin-4-yl)cyclohexyl)ethyl)acetamide], the 50% inhibitory concentration (IC50) is under 1000 nM.

With `C[C@@H](NC(=O)C12CCC(Cl)(CC1)CC2)[C@H]1CC[C@@H](c2ccnc3ccc(F)cc32)CC1` [Example 14, 4-chloro-N—((R)-1-((cis)-4-(6-fluoroquinolin-4-yl)cyclohexyl)ethyl)bicyclo [2.2.2]octane-1-carboxamide], the IC50 is under 100 nM.

As for `C[C@@H](C(=O)N[C@H](C)[C@H]1CC[C@@H](c2ccnc3ccc(F)cc32)CC1)c1ccccc1` [Example 9, (R)-N-((R)-1-((1s,4S)-4-(6-fluoroquinolin-4-yl)cyclohexyl)ethyl)-2-phenylpropanamide], the half-maximal inhibitory concentration (IC50) is under 1000 nM.

Turning to `Cc1ccc(CC(=O)NCC2CCN(c3ccnc4ccc(F)cc34)CC2)cc1` [Example 1, N-((1-(6-Fluoroquinolin-4-yl)piperidin-4-yl)methyl)-2-(p-tolyl)acetamide], the IC50 is under 100 nM.

In the case of `C[C@@H](NC(=O)[C@H]1CC[C@H](O)CC1)[C@H]1CC[C@@H](c2ccnc3ccc(F)cc32)CC1` [Example 22, (1r,4R)-N-((R)-1-((1s,4S)-4-(6-fluoroquinolin-4-y1)cyclohexyl)ethyl)-4-hydroxycxclohexanecarboxamide], the IC50 was under 1000 nM.

`C[C@H](C(=O)N[C@H](C)[C@H]1CC[C@@H](c2ccnc3ccc(F)cc32)CC1)c1ccccc1` [Example 8, (S)-N-((R)-1-((1s,4S)-4-(6-fluoroquinolin-4-yl)cyclohexyl)ethyl)-2-phenylpropanamide]: the 50% inhibitory concentration (IC50) is under 1000 nM.
